System: 966289-007-R4-J1-PDC complex spheroid viability
Experiment: Anticancer human tumor 966289-007-R4-J1-PDC patient-derived pancreatic adenocarcinoma cell line growth inhibition [GQUAD]
Details: for IC50: curve of first compound; for viability, T/C: stronger effect = lower value
Outline: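 Tumor cells were grown as complex spheroids with HUVEC endothelial cells and mesenchymal stem cells as stroma. G-quadruplex stabilizers were combined with targeted agents over half-log dilutions from near the clinical Cmax, or from 10 microM.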

[1] = second compound 0.0316 µM, first compound 0.0316 µM
[2] = second compound 0.0316 µM, first compound 0.316 µM
[3] = second compound 0.1 µM, first compound 0.0316 µM
[4] = second compound 0.1 µM, first compound 0.316 µM
[5] = second compound 0.316 µM, first compound 0.0316 µM
[6] = second compound 0.316 µM, first compound 0.316 µM
[7] = second compound 1 µM, first compound 0.0316 µM
[8] = second compound 1 µM, first compound 0.316 µM
[9] = second compound 3.16 µM, first compound 0.0316 µM
[10] = second compound 3.16 µM, first compound 0.316 µM
[11] = second compound 10 µM, first compound 0.0316 µM
[12] = second compound 10 µM, first compound 0.316 µM
[13] = second compound 0.0316 µM, first compound 0.000999 µM
[14] = second compound 0.0316 µM, first compound 0.00316 µM
[15] = second compound 0.0316 µM, first compound 0.00999 µM
[16] = second compound 0.0316 µM, first compound 0.0999 µM
[17] = second compound 0.1 µM, first compound 0.000999 µM
[18] = second compound 0.1 µM, first compound 0.00316 µM
[19] = second compound 0.1 µM, first compound 0.00999 µM
[20] = second compound 0.1 µM, first compound 0.0999 µM
[21] = second compound 0.316 µM, first compound 0.000999 µM
[22] = second compound 0.316 µM, first compound 0.00316 µM
[23] = second compound 0.316 µM, first compound 0.00999 µM
[24] = second compound 0.316 µM, first compound 0.0999 µM
[25] = second compound 1 µM, first compound 0.000999 µM
[26] = second compound 1 µM, first compound 0.00316 µM
[27] = second compound 1 µM, first compound 0.00999 µM
[28] = second compound 1 µM, first compound 0.0999 µM
[29] = second compound 3.16 µM, first compound 0.000999 µM
[30] = second compound 3.16 µM, first compound 0.00316 µM
[31] = second compound 3.16 µM, first compound 0.00999 µM
[32] = second compound 3.16 µM, first compound 0.0999 µM
[33] = second compound 10 µM, first compound 0.000999 µM
[34] = second compound 10 µM, first compound 0.00316 µM
[35] = second compound 10 µM, first compound 0.00999 µM
[36] = second compound 10 µM, first compound 0.0999 µM
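Note: spheroids exposed to the agents for seven days before readout.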
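Throughout, for viability, T/C: percent viability relative to DMSO vehicle control wells taken as 100%.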

Q: How did the IC50 (second compound 0.0316 µM) turn out when `C=CC(=O)N1CCN(c2nc(=O)n(-c3c(C)ccnc3C(C)C)c3nc(-c4c(O)cccc4F)c(F)cc23)C(C)C1` (stereo unspecified) + Cc1cnc(CNC(=O)c2c(=O)c3ccc(N4CCCN(C)CC4)nc3n3c2sc2ccccc23)cn1 was run?
A: > 10000 nM

Q: And the IC50 (second compound 0.1 µM)?
A: < 31.6 nM

Q: What about the IC50 (second compound 0.316 µM) of the same molecule?
A: < 31.6 nM

Q: What about the IC50 (second compound 1 µM) of the same molecule?
A: < 31.6 nM

Q: And the IC50 (second compound 3.16 µM)?
A: < 31.6 nM

Q: What about the IC50 (second compound 10 µM) of the same molecule?
A: < 31.6 nM

Q: And the viability, T/C [1]?
A: 109%

Q: And the viability, T/C (second compound 0.0316 µM, first compound 0.1 µM)?
A: 102%

Q: What about the viability, T/C [2] of the same molecule?
A: 112%

Q: What about the viability, T/C (second compound 0.0316 µM, first compound 1 µM) of the same molecule?
A: 98%

Q: What about the viability, T/C (second compound 0.0316 µM, first compound 3.16 µM) of the same molecule?
A: 103%

Q: What about the viability, T/C (second compound 0.0316 µM, first compound 10 µM) of the same molecule?
A: 88.2%

Q: And the viability, T/C [3]?
A: 31.1%

Q: What about the viability, T/C (second compound 0.1 µM, first compound 0.1 µM) of the same molecule?
A: 37.4%

Q: What about the viability, T/C [4] of the same molecule?
A: 37.1%

Q: What about the viability, T/C (second compound 0.1 µM, first compound 1 µM) of the same molecule?
A: 31.9%

Q: And the viability, T/C (second compound 0.1 µM, first compound 3.16 µM)?
A: 37%

Q: And the viability, T/C (second compound 0.1 µM, first compound 10 µM)?
A: 25.3%

Q: And the viability, T/C [5]?
A: 11.3%

Q: And the viability, T/C (second compound 0.316 µM, first compound 0.1 µM)?
A: 12.7%

Q: What about the viability, T/C [6] of the same molecule?
A: 11.5%

Q: And the viability, T/C (second compound 0.316 µM, first compound 1 µM)?
A: 12.2%

Q: What about the viability, T/C (second compound 0.316 µM, first compound 3.16 µM) of the same molecule?
A: 13.4%

Q: And the viability, T/C (second compound 0.316 µM, first compound 10 µM)?
A: 10.3%

Q: And the viability, T/C [7]?
A: 7.08%

Q: And the viability, T/C (second compound 1 µM, first compound 0.1 µM)?
A: 5.8%

Q: And the viability, T/C [8]?
A: 5.81%

Q: And the viability, T/C (second compound 1 µM, first compound 1 µM)?
A: 6.58%

Q: And the viability, T/C (second compound 1 µM, first compound 3.16 µM)?
A: 9.48%

Q: What about the viability, T/C (second compound 1 µM, first compound 10 µM) of the same molecule?
A: 9.07%

Q: What about the viability, T/C [9] of the same molecule?
A: 4.85%

Q: What about the viability, T/C (second compound 3.16 µM, first compound 0.1 µM) of the same molecule?
A: 4.57%

Q: And the viability, T/C [10]?
A: 5.54%

Q: What about the viability, T/C (second compound 3.16 µM, first compound 1 µM) of the same molecule?
A: 5.93%

Q: What about the viability, T/C (second compound 3.16 µM, first compound 3.16 µM) of the same molecule?
A: 7.14%

Q: What about the viability, T/C (second compound 3.16 µM, first compound 10 µM) of the same molecule?
A: 8.52%

Q: What about the viability, T/C [11] of the same molecule?
A: 0.11%

Q: What about the viability, T/C (second compound 10 µM, first compound 0.1 µM) of the same molecule?
A: 0.14%

Q: What about the viability, T/C [12] of the same molecule?
A: 0.14%

Q: And the viability, T/C (second compound 10 µM, first compound 1 µM)?
A: 0.16%

Q: What about the viability, T/C (second compound 10 µM, first compound 3.16 µM) of the same molecule?
A: 2.33%

Q: And the viability, T/C (second compound 10 µM, first compound 10 µM)?
A: 0.13%

Q: For `CC[C@@]1(O)C(=O)OCc2c1cc1n(c2=O)Cc2cc3c(CN(C)C)c(O)ccc3nc2-1` + Cc1cnc(CNC(=O)c2c(=O)c3ccc(N4CCCN(C)CC4)nc3n3c2sc2ccccc23)cn1, which IC50 (second compound 0.0316 µM) is on record?
A: 14.7 nM

Q: And the IC50 (second compound 0.1 µM)?
A: < 0.999 nM

Q: What about the IC50 (second compound 0.316 µM) of the same molecule?
A: < 0.999 nM

Q: What about the IC50 (second compound 1 µM) of the same molecule?
A: < 0.999 nM

Q: What about the IC50 (second compound 3.16 µM) of the same molecule?
A: < 0.999 nM

Q: And the IC50 (second compound 10 µM)?
A: < 0.999 nM

Q: And the viability, T/C [13]?
A: 114%

Q: And the viability, T/C [14]?
A: 101%

Q: What about the viability, T/C [15] of the same molecule?
A: 70.2%

Q: What about the viability, T/C [1] of the same molecule?
A: 11%

Q: What about the viability, T/C [16] of the same molecule?
A: 0.58%

Q: What about the viability, T/C [2] of the same molecule?
A: 0.79%

Q: And the viability, T/C [17]?
A: 37.3%

Q: What about the viability, T/C [18] of the same molecule?
A: 28.6%

Q: What about the viability, T/C [19] of the same molecule?
A: 16.8%

Q: And the viability, T/C [3]?
A: 3.15%

Q: What about the viability, T/C [20] of the same molecule?
A: 0.77%

Q: What about the viability, T/C [4] of the same molecule?
A: 0.75%

Q: And the viability, T/C [21]?
A: 9.34%

Q: And the viability, T/C [22]?
A: 13.5%

Q: What about the viability, T/C [23] of the same molecule?
A: 8.56%

Q: And the viability, T/C [5]?
A: 2.61%

Q: And the viability, T/C [24]?
A: 0.93%

Q: What about the viability, T/C [6] of the same molecule?
A: 0.49%

Q: And the viability, T/C [25]?
A: 5.94%

Q: And the viability, T/C [26]?
A: 5.56%

Q: What about the viability, T/C [27] of the same molecule?
A: 4.48%

Q: And the viability, T/C [7]?
A: 1.71%

Q: What about the viability, T/C [28] of the same molecule?
A: 0.92%

Q: And the viability, T/C [8]?
A: 0.68%

Q: And the viability, T/C [29]?
A: 3.9%

Q: And the viability, T/C [30]?
A: 3.89%

Q: And the viability, T/C [31]?
A: 3.05%

Q: And the viability, T/C [9]?
A: 0.13%

Q: What about the viability, T/C [32] of the same molecule?
A: 0.08%

Q: And the viability, T/C [10]?
A: 0.07%

Q: What about the viability, T/C [33] of the same molecule?
A: 0.03%

Q: And the viability, T/C [34]?
A: 0.08%

Q: What about the viability, T/C [35] of the same molecule?
A: 0.12%

Q: And the viability, T/C [11]?
A: 0.09%

Q: And the viability, T/C [36]?
A: 0.3%

Q: And the viability, T/C [12]?
A: 0.11%

Q: With `CCc1c2c(nc3ccc(O)cc13)-c1cc3c(c(=O)n1C2)COC(=O)[C@]3(O)CC` + Cc1cnc(CNC(=O)c2c(=O)c3ccc(N4CCCN(C)CC4)nc3n3c2sc2ccccc23)cn1 as the molecule, how does the IC50 (second compound 0.0316 µM) read?
A: < 0.999 nM

Q: And the IC50 (second compound 0.1 µM)?
A: < 0.999 nM

Q: And the IC50 (second compound 0.316 µM)?
A: < 0.999 nM

Q: What about the IC50 (second compound 1 µM) of the same molecule?
A: < 0.999 nM

Q: And the IC50 (second compound 3.16 µM)?
A: < 0.999 nM

Q: And the IC50 (second compound 10 µM)?
A: < 0.999 nM

Q: What about the viability, T/C [13] of the same molecule?
A: 5.02%

Q: And the viability, T/C [14]?
A: 0.7%

Q: What about the viability, T/C [15] of the same molecule?
A: 0.49%

Q: What about the viability, T/C [1] of the same molecule?
A: 0.4%

Q: What about the viability, T/C [16] of the same molecule?
A: 0.35%

Q: What about the viability, T/C [2] of the same molecule?
A: 0.36%

Q: What about the viability, T/C [17] of the same molecule?
A: 2.67%

Q: And the viability, T/C [18]?
A: 0.71%

Q: What about the viability, T/C [19] of the same molecule?
A: 1.06%

Q: And the viability, T/C [3]?
A: 0.42%

Q: And the viability, T/C [20]?
A: 0.35%

Q: What about the viability, T/C [4] of the same molecule?
A: 0.46%

Q: What about the viability, T/C [21] of the same molecule?
A: 2.26%

Q: And the viability, T/C [22]?
A: 0.87%

Q: And the viability, T/C [23]?
A: 0.52%

Q: And the viability, T/C [5]?
A: 0.5%

Q: What about the viability, T/C [24] of the same molecule?
A: 0.79%

Q: And the viability, T/C [6]?
A: 0.41%

Q: And the viability, T/C [25]?
A: 1.23%

Q: What about the viability, T/C [26] of the same molecule?
A: 0.79%

Q: And the viability, T/C [27]?
A: 0.82%

Q: And the viability, T/C [7]?
A: 0.08%

Q: What about the viability, T/C [28] of the same molecule?
A: 0.63%

Q: What about the viability, T/C [8] of the same molecule?
A: 0.12%

Q: What about the viability, T/C [29] of the same molecule?
A: 0.43%

Q: And the viability, T/C [30]?
A: 0.09%

Q: And the viability, T/C [31]?
A: 0.06%

Q: And the viability, T/C [9]?
A: 0.05%

Q: And the viability, T/C [32]?
A: 0.12%

Q: What about the viability, T/C [10] of the same molecule?
A: 0.09%

Q: What about the viability, T/C [33] of the same molecule?
A: 0.03%

Q: And the viability, T/C [34]?
A: 0.07%

Q: And the viability, T/C [35]?
A: 0.08%

Q: And the viability, T/C [11]?
A: 0.07%

Q: What about the viability, T/C [36] of the same molecule?
A: 1.27%

Q: And the viability, T/C [12]?
A: 0.1%

Reference: PubChem BioAssay AID2060488 (Molecular Pharmacology Branch, DTP, NCI, 2025)
